The values below come from patent publication US5011836A, “Agents for the treatment of acute and chronic obstructive respiratory passage diseases” (Dr. Karl Thomae GmbH, priority 1988, dated 1991).

Each structure is given as a SMILES string. “Also recorded” adds a separate entry of the source.

Assay [1] addresses T1, muscarinic receptors, cortex (M1) (Rattus norvegicus, UniProt P08482).
T1 construct: After removing the heart, submandible and cerebral cortex; from tissue; host or cells: Sprague-Dawley rat cerebral cortex homogenate
T1 sequence (P08482 1-460): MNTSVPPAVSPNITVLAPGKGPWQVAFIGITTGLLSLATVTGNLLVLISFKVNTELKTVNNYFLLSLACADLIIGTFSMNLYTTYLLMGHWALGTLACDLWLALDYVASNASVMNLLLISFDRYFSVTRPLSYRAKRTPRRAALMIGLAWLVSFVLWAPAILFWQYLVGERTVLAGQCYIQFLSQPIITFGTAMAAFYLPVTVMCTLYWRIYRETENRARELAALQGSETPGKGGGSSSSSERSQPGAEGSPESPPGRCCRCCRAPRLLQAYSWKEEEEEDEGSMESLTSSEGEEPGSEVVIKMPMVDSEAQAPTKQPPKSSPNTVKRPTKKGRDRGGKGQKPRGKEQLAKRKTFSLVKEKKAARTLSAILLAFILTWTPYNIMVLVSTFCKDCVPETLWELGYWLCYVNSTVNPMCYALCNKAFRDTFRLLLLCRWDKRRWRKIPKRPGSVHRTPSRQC
The assay can be described thus: Receptor binding test in vitro, 3H-pirenzepine, cerebral cortex (M1). More on the design: species or system Sprague-Dawley rat. Conditions: for IC50: 1 nanomolar 3H-pirenzepine, rat cerebral cortex homogenate, 30° C., 45 minutes, pH 7.4, read-out: IC50 3H-PZ Cortex (M1); for M1-selectivity in receptor binding studies (in words): cortex M1 compared to heart and submandible. As for the experimental part: (§1) Sprague-Dawley rats having body weights of 180-220 g were used as organ donors. After removing the heart, submandible and cerebral cortex, all further steps were carried out in ice-cold Hepes-HCl buffer (pH 7.4; 100 m molar NaCl, 10 m molar MgCl2). The entire heart was comminuted using a pair of scissors. All organs were then homogenised in a Potter.
(§2) For the binding test, the organ homogenates were diluted in the following manner(ratio by volume):
(§3) The incubation of the organ homogenates was carried out at a defined concentration of the radioligand and a number of concentrations of the non-radioactive test substances in Eppendorf centrifuge tubes at 30° C. The incubation period was 45 minutes. 0.3 nanomolar ^3 H-N-methylscopolamine (^3 H-NMS, heart and submandible) or 1 nanomolar ^3 H-pirenzepine (^3 H-PZ, cerebrum) were used as the radioligand. The incubation was ended by addition of ice-cold buffer with subsequent vacuum filtration. The filter was washed with cold buffer and its radioactivity was determined. This represents the total of specific and non-specific binding of ^3 H-NMS or ^3 H-PZ. The proportion of non-specific binding was defined as that radioactivity which was bound in the presence of 1μ molar quinuclidinylbenzylate. Four-fold determinations were always carried out. The IC50 values of non-labelled test substances were determined graphically. They represent that concentration of the test substance at which the specific binding of ^3 H-NMS or ^3 H-PZ to the muscarinic receptors in the various organs was inhibited by 50%.

The target in assay [2] is T2, muscarinic receptors, heart (M2) (Rattus norvegicus, UniProt P10980).
T2 construct: After removing the heart, submandible and cerebral cortex; from tissue; host or cells: Sprague-Dawley rat entire heart homogenate
T2 sequence (P10980 1-466): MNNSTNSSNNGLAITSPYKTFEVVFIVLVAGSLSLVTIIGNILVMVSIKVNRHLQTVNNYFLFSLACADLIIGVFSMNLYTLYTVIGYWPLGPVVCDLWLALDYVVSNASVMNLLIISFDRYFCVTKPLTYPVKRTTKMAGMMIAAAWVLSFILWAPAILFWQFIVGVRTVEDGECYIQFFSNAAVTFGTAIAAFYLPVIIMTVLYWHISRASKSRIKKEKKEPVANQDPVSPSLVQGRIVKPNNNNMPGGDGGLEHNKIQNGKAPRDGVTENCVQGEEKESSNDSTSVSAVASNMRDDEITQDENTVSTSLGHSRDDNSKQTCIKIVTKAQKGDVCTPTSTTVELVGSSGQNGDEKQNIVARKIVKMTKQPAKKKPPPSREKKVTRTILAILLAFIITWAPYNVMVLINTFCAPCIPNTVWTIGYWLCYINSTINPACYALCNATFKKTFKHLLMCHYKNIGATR
The assay can be described thus: Receptor binding test in vitro, 3H-N-methylscopolamine, heart (M2). The arrangement: species or system Sprague-Dawley rat. The protocol:
as §1, §2, §3

The target in assay [3] is T3, muscarinic receptors, submandible (M3) (Rattus norvegicus, UniProt P08483).
T3 construct: After removing the heart, submandible and cerebral cortex; from tissue; host or cells: Sprague-Dawley rat submandibular gland ('submandible') homogenate
T3 sequence (P08483 whole entry): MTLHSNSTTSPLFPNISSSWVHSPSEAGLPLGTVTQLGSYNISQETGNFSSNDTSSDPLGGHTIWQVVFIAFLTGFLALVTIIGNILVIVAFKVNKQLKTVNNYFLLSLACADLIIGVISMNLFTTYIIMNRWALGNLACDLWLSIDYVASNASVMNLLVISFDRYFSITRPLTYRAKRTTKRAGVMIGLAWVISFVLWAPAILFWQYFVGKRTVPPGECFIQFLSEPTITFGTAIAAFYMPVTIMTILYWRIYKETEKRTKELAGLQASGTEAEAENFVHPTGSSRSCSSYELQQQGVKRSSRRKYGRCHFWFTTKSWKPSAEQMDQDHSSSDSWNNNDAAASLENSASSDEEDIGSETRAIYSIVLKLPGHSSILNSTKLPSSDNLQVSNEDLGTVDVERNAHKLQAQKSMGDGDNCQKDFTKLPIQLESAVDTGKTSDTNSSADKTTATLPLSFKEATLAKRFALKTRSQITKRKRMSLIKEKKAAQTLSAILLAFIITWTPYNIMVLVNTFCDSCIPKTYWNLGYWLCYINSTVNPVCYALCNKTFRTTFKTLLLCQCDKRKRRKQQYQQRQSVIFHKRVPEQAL
The assay can be described thus: Receptor binding test in vitro, 3H-N-methylscopolamine, submandible (M3). More on the design: species or system Sprague-Dawley rat. The conditions noted are these: 0.3 nanomolar 3H-N-methylscopolamine, rat submandible homogenate, 30° C., 45 minutes, pH 7.4; read-out: IC50 3H-NMS Submandible (M3). The protocol: as §1, §2, §3

Assay [4] deals with effect of acetylcholine on bronchi. Kind of assay: Inhibition of the effect of acetylcholine on the bronchi (respiratory passage resistance, Konzett-Rossler), anaesthetised guinea-pigs. In kind it is in vivo, guinea-pig. The conditions noted are these: for ED50: Cavia porcellus, iv, 5 min, read-out: -log DE50 Bronchi; for selectivity of inhibition of acetylcholine-induced bronchoconstriction versus effects on heart and bladder (in words): bronchi compared to heart and bladder, guinea-pig. As for the experimental part:
(§4) 5 minutes after administration of the test substance to anaesthetised guinea-pigs, 10 μg/kg of acetylcholine was injected intravenously and, at the same time, intraarterially. At the same time, the heart rate was recorded by extracorporeal derivation of the ECG, the respiratory passage resistance by Konzett-Rossler and the contraction of the exposed bladder directly. For the inhibition of the effect of acetylcholine on the organs examined, dosage-activity curves were recorded and -log ED50 values were determined therefrom.

In assay [5] the test system is effect of acetylcholine on heart rate. Kind of assay: Inhibition of the effect of acetylcholine on the heart rate (ECG), anaesthetised guinea-pigs. Conditions: Cavia porcellus, iv, 5 min, anaesthetised guinea-pig, 10 μg/kg acetylcholine i.v. and intraarterially 5 minutes after test substance, read-out: -log DE50 Heart (converted). In kind it is in vivo. The protocol:
as §4

In assay [6] the test system is effect of acetylcholine on bladder. Kind of assay: Inhibition of the effect of acetylcholine on the bladder (contraction of the exposed bladder), anaesthetised guinea-pigs. It is filed as in vivo. Conditions: Cavia porcellus, iv, 5 min; anaesthetised guinea-pig; 10 μg/kg acetylcholine i.v. and intraarterially 5 minutes after test substance; read-out: -log DE50 Bladder (converted). The protocol:
as §4

With `CN1CCC(NC(=O)C2c3ccccc3NC(=O)c3ccccc32)CC1` (single isomer, unassigned; (+)) [Substance D, (+)-5,11-dihydro-11-[[(1-methyl-4-piperidinyl)amino]carbonyl]-6H-dibenz[b,e]azepin-6-one], the values for the IC50 in assay [1], in assay [2] and in assay [3] were 3 nM, 300 nM and 50 nM, respectively. Moreover, in assay [1], the “M1-selectivity in receptor binding studies (in words)” value (“M1-selectivity” for short) was “marked M1 -selectivity; also recorded: lower IC50 values for the cortex M1 receptor compared to muscarinic receptors in preparations of the heart and submandible; also recorded: M1 -selectivity in in vitro receptor binding studies”. Also, the ED50 was 0.0331 µmol/kg in assay [4], 0.407 µmol/kg in assay [5] and 0.309 µmol/kg in assay [6]. Also, the “selectivity of inhibition of acetylcholine-induced bronchoconstriction versus effects on heart and bladder (in words)” value (“selectivity of inhibition … (in words)” for short) in assay [4] was “even at dosages at which no effects on the heart and bladder are observed; also recorded: more strongly inhibit the cholinergically induced bronchoconstriction in functional tests than frequency effects on the heart or the bladder contraction”.

In the case of `CN1CCC(CC(=O)C2c3ccccc3NC(=O)c3ccccc32)CC1` (racemic) [Substance B, 5,11-dihydro-11-[(1-methyl-4-piperidinyl)acetyl]-6H-dibenz[b,e]azepin-6-one], the figures for the IC50 in assay [1], in assay [2] and in assay [3] were 2.5 nM, 42 nM and 13 nM, respectively. The “M1-selectivity” value in assay [1] is “marked M1 -selectivity; also recorded: lower IC50 values for the cortex M1 receptor compared to muscarinic receptors in preparations of the heart and submandible; also recorded: M1 -selectivity in in vitro receptor binding studies”. The ED50 is 0.182 µmol/kg in assay [4], 0.851 µmol/kg in assay [5] and 0.813 µmol/kg in assay [6]. In assay [4], the “selectivity of inhibition … (in words)” value was “marked selectivity for the inhibition of the bronchoconstriction; also recorded: even at dosages at which no effects on the heart and bladder are observed; also recorded: more strongly inhibit the cholinergically induced bronchoconstriction in functional tests than frequency effects on the heart or the bladder contraction”.

With `CN1CCC(NC(=O)C2c3ccccc3NC(=O)c3ccccc32)CC1` (racemic) [Substance A, 5,11-dihydro-11-[[(1-methyl-4-piperidinyl)amino]carbonyl]-6H-dibenz[b,e]azepin-6-one], the half-inhibitory concentration (IC50) stood at 6 nM in assay [1], 400 nM in assay [2] and 70 nM in assay [3]. Besides, the “M1-selectivity” value in assay [1] is “marked M1 -selectivity; also recorded: lower IC50 values for the cortex M1 receptor compared to muscarinic receptors in preparations of the heart and submandible; also recorded: M1 -selectivity in in vitro receptor binding studies”. In addition, the ED50 was 0.055 µmol/kg in assay [4], 0.955 µmol/kg in assay [5] and 0.537 µmol/kg in assay [6]. Besides, in assay [4], the “selectivity of inhibition … (in words)” value is “marked selectivity for the inhibition of the bronchoconstriction; also recorded: even at dosages at which no effects on the heart and bladder are observed; also recorded: more strongly inhibit the cholinergically induced bronchoconstriction in functional tests than frequency effects on the heart or the bladder contraction”.

Consider `CN1CCN(CC(=O)C2c3ccccc3NC(=O)c3ccccc32)CC1` (racemic) [Substance C, 5,11-dihydro-11-[(4-methyl-1-piperazinyl)acetyl]-6H-dibenz[b,e]azepin-6-one], for which the IC50 in assay [1] came to 8 nM; in assay [2], 800 nM; in assay [3], 100 nM. Moreover, the “M1-selectivity” value in assay [1] was “marked M1 -selectivity; also recorded: lower IC50 values for the cortex M1 receptor compared to muscarinic receptors in preparations of the heart and submandible; also recorded: M1 -selectivity in in vitro receptor binding studies”. For the same compound, the values for the ED50 in assay [4], in assay [5] and in assay [6] were 0.275 µmol/kg, 1.78 µmol/kg and 5.37 µmol/kg, respectively. Further, the “selectivity of inhibition … (in words)” value in assay [4] was “marked selectivity for the inhibition of the bronchoconstriction; also recorded: even at dosages at which no effects on the heart and bladder are observed; also recorded: more strongly inhibit the cholinergically induced bronchoconstriction in functional tests than frequency effects on the heart or the bladder contraction”.
